Results: patent publication US20250213700A1, “COMPOUNDS, COMPOSITIONS, AND METHODS FOR CELL-SPECIFIC PHARMACOLOGY” (Duke University, priority 2022, published 2025)

Test system: GABAAR
Experiment: VTA slice, evoked GABAAR IPSCs on midbrain dopamine neurons
Assay type: cell-based, mouse
Settings: 300 nM (FIG. 4E)
From the text: FIG. 4A-4F show the DART.2 platform can enable safe use of epileptogenic pharmaceuticals in awake behaving animals. (FIG. 4A) Validation of gabazine.1^DART.2 in cerebellar slice. Top: voltage-clamp schematic. Bottom: tonic GABAAR in granule cells expressing ^+HTP or ^ddHTP. […] Data are mean±SEM, cells normalized to baseline. (FIG. 4B) In vivo delivery of gabazine.1^DART.2 to cerebellar granule cells. Top right: schematic of experimental approach, GCaMP6f granule-cell activity obtained in the absence of sensory stimuli. Top left: example field of view, GCaMP6f signal averaged across trials. Bottom: example calcium traces (ΔF/F) in an awake ^+HTP mouse before (baseline) and after (1 μL of 1 μM gabazine.1^DART.2) infusion. (FIG. 4C) In vivo, 1 μL of 1 μM gabazine.1^DART.2 to ^+HTP mice. Color indicates ΔF/F, each row is one cell before (left) and after (right) gabazine.1^DART.2 infusion. Full dataset from 6 mice (n=1707 cells, p<0.0001, paired t-test, before vs after infusion). (FIG. 4D) In vivo, 1 μL of 1 μM gabazine.1^DART.2 to ^ddHTP mice. Format as in panel C. Full dataset from 4 mice (n=1084 cells, p=0.76, paired t-test, before vs after infusion). (FIG. 4E) Validation of gabazine.7^DART.2 in VTA slice. Top: evoked-IPSC configuration. […] Data are mean±SEM, cells normalized to baseline. Control experiments confirmed the GABAAR specificity of the manipulation. […] Data are mean±SEM, normalized to baseline speed of each animal.
Electrophysiology. Preparation of Brain slices: Mice (8-10 weeks) were injected AAV10 HaloTag™-dTomato to striatum or ventral tegmental area (VTA). After 3-5 weeks, mice were deeply anesthetized with isoflurane and euthanized by decapitation. Coronal brain slices ([…]) containing striatum or VTA were prepared by standard methods using a Vibratome (Leica, VT 1200S), in ice-cold high sucrose cutting solution containing (in mM) 220 sucrose, 3 KCl, 1.25 NaH2PO4, 25 NaHCO3, 12 MgSO4.7H2O, 10 glucose, and 0.2 CaCl2) bubbled with 95% O2 and 5% CO2. The slices were placed into modified artificial cerebrospinal fluid (aCSF) containing (in mM): 120 NaCl, 3.3 KCl, 1.23 NaH2PO4, 1 MgSO4, 2 CaCl2), 25 NaHCO3, and 10 glucose at pH 7.3, previously saturated with 95% O2 and 5% CO2. For recovery, the slices were incubated at 33° C. for 40-60 min in the bubbled ACSF solution and then allowed to cool to room temperature (22-24° C.) until the recordings were initiated.
Whole-cell patch-clamp recording: The brain slices or retinas were perfused with bubbled aCSF at 29-30° C. with a 2 ml/min flow rate. Recordings were made by whole cell patch recording techniques using a Multiclamp 700B amplifier (Molecular Devices, Axon Instruments Inc., Union City, CA). The signals were filtered at 10 KHz and acquired using Digitate 1440A and pClamp 10.7 (Molecular Devices). […]

COc1cc(CCCCl)ccc1CCOCCNC(=O)c1ccc(CNC(=O)CCOCCOCCOCCOCCOCCOCCOCCOCCOCCOCCOCCOCCOCCOCCOCCOCCOCCOCCOCCOCCOCCOCCOCCOCCOCCOCCOCCOCCOCCOCCOCCOCCOCCOCCOCCOCCn2cc(COCCOCCOCCOCCOCCOCCOCCCCCCOc3ccc(-c4nn(CCCCC(=O)O)c(=N)cc4C)cc3)nn2)cc1 [gabazine.7DART.2]
evoked GABAAR current (IPSCs), +HTP neurons: pronounced block of evoked GABAAR current
evoked GABAAR current (IPSCs), ddHTP cells: no measurable effect on ddHTP cells
evoked GABAAR current (IPSCs), +HTP neurons (listed as gabazine.7^DART.2): nearly complete block of evoked IPSCs
evoked GABAAR current (IPSCs), ddHTP cells (listed as gabazine.7^DART.2): no impact on ^ddHTP cells
